In patent publication EP0745595A1, “3-(3-Aryloxyphenyl)-1-(substituted methyl)-s-triazine-2,4,6-oxo or thiotrione herbicidal agents” (American Cyanamid Company, priority 1995, dated 1996):

Key:
Format in all cases: in vivo
[1] = system: CASSIA OBTUSIFOLIA, L.; test: Postemergence herbicidal evaluation, CASOB (Sicklepod); design: key to CASOB rating / Herbicidal effect rating, CASOB / CASOB: 0-9 visual rating scale vs untreated control
Procedure, shortened: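 Visual 0–9 scores reflect stand, vigor, malformation, size, chlorosis and overall appearance relative to control, taken 4–5 weeks after spraying two-week-old seedlings with about 0.125–0.500 kg/ha compound in acetone/water/TWEEN 20.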

[2] = system: ORYZA SATIVA, L. TEBONNET; test: Rice tolerance to post-transplant applications under flooded paddy conditions, ORYSAT (Rice, Tebonnet); conditions: for ORYSAT: post-transplanted rice; for ORYSAT herbicidal rating (rice tolerance) / Herbicidal effect rating, ORYSAT: post-transplant rice; for ORYSAT herbicidal rating (rice tolerance): rated three to four weeks after treatment; for Herbicidal effect rating, ORYSAT: 0.500 kg/ha, 3-4 weeks after treatment;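 for ORYSAT herbicidal rating (rice tolerance): applied to flooded soil surface three days after transplanting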
Procedure, shortened: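 Two ten-day-old Tebonnet rice seedlings were transplanted into silt loam and kept flooded 1.5 to 3 cm deep. Three days after transplanting, the flood surface received the compound in aqueous/acetone 50/50 v/v at about 0.5, 0.25, 0.125 or 0.063 kg/ha. Injury was rated visually on a 0-9 scale versus control after 3-4 weeks.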

[3] = system: IPOMOEA SPP.; test: Postemergence herbicidal evaluation, IPOSS (Morningglory spp.); conditions: for IPOSS, herbicide rating (0-9): rated four to five weeks after treatment, averaged
Procedure, shortened: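 Seedlings of morningglory (Ipomoea spp.) were raised in jiffy flats for roughly two weeks. They were then sprayed postemergence through a nozzle at 40 psi with test compound dispersed in 50/50 acetone/water containing 0.5% TWEEN®20 surfactant. Plants were kept on greenhouse benches under standard care and visually rated 0-9 against controls four to five weeks after treatment.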

[4] = system: ZEA MAYS L.; test: Postemergence herbicidal evaluation, ZEAMX (Corn, Field)
Procedure, shortened: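 Corn seedlings were raised in jiffy flats for roughly two weeks, then sprayed postemergence with the test material dispersed in 50/50 acetone/water containing 0.5% TWEEN®20 surfactant, using a nozzle at 40 psi. Plants were kept on greenhouse benches under standard care and visually rated on a 0-9 scale four to five weeks after treatment.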

[5] = system: ECHINOCHLOA CRUS-GALLI, (L) BEAU; test: Postemergence herbicidal evaluation, ECHCG (Barnyardgrass); design: key to ECHCG rating / Herbicidal effect rating, ECHCG / ECHCG: 0-9 visual rating scale vs untreated control
Procedure, shortened: (§1)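 Seedlings about two weeks old were sprayed with compound in 50/50 acetone/water containing 0.5% Tween 20 at about 0.125-0.500 kg/ha and kept in the greenhouse. Visual injury was rated on a 0-9 scale versus control 4-5 weeks after treatment; repeat tests were averaged.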

[6] = system: AMBROSIA ARTEMISIIFOLIA, L.; test: Postemergence herbicidal evaluation, AMBEL (Ragweed, Common); conditions: for AMBEL, herbicide rating (0-9): rated four to five weeks after treatment, averaged
Procedure, shortened: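 Common ragweed (Ambrosia artemisiifolia) seedlings were raised in jiffy flats for roughly two weeks, then sprayed postemergence through a nozzle at 40 psi with the test compound dispersed in 50/50 acetone/water carrying 0.5% TWEEN®20. The plants were kept on greenhouse benches under conventional care. Four to five weeks later, injury was rated visually on a 0-9 scale, and repeat tests were averaged.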

[7] = system: GALIUM APARINE; test: Postemergence herbicidal evaluation, GALAP (Galium); design: key to GALAP rating / Herbicidal effect rating, GALAP / GALAP: 0-9 visual rating scale vs untreated control
Procedure, shortened: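 Galium (GALAP) seedlings were raised in jiffy flats for about two weeks, then sprayed with test compounds dispersed in 50/50 acetone/water containing 0.5% TWEEN®20, delivered through a nozzle at 40 psi. Plants were kept on greenhouse benches and visually rated 0-9 against a control four to five weeks later; repeat tests were averaged.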

[8] = system: SETARIA VIRIDIS, (L) BEAU; test: Postemergence herbicidal evaluation, SETVI (Foxtail, Green); design: key to SETVI rating / Herbicidal effect rating, SETVI / SETVI: 0-9 visual rating scale vs untreated control
Procedure, shortened: as §1

[9] = system: ABUTILON THEOPHRASTI, MEDIC.; test: Postemergence herbicidal evaluation, ABUTH (Velvetleaf); conditions: for ABUTH, herbicide rating (0-9): rated four to five weeks after treatment, averaged
Procedure, shortened: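 Velvetleaf (Abutilon theophrasti) seedlings were raised in jiffy flats for about two weeks and then sprayed postemergence. The test compound was dispersed in a 50/50 acetone/water mixture containing 0.5% TWEEN®20 and applied through a nozzle operating at 40 psi. Plants were kept on greenhouse benches and rated 0-9 four to five weeks after treatment.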

[10] = system: TRITICUM AESTIVUM, CV. APOLLO; test: Postemergence herbicidal evaluation, TRZAWO (Wheat, Winter, CV. APOLLO)
Procedure: In the tests, seedling plants are grown in jiffy flats for about two weeks. The test compounds are dispersed in 50/50 acetone/water mixtures containing 0.5% TWEEN®20, a polyoxyethylene sorbitan monolaurate surfactant of Atlas Chemical Industries, […] through a spray nozzle operating at 40 psi for a predetermined time. After spraying, the plants are placed on greenhouse benches and are cared for in the usual manner, commensurate with conventional greenhouse practices. From four to five weeks after treatment, the seedling plants are examined and rated according to the rating system set forth below. Where more than one test is involved for a given compound, the data are averaged.
Plant species employed in these evaluations are reported by header abbreviation, common name and scientific name.
Results of herbicide evaluation are expressed on a rating scale (0-9). The scale is based upon a visual observation of plant stand, vigor, malformation, size, chlorosis and overall plant appearance as compared with a control.

[11] = system: CHENOPODIUM ALBUM, L.; test: Preemergence herbicidal evaluation, CHEAL (Lambsquarters, Common); conditions: for CHEAL rating: four to five weeks after treatment; for CHEAL herbicidal rating: rated four to five weeks after treatment
Procedure, shortened: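 Preemergence, greenhouse: seed + potting soil sown on ~1 inch soil in cups; aqueous acetone spray, ~0.125–0.50 kg/ha equivalent; rated 0-9 vs control at 4–5 wk.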

Structure (SMILES): Cn1c(=O)[nH]c(=O)n(-c2cc(Oc3c(F)cc(C(F)(F)F)cc3Cl)ccc2F)c1=O [C, reference compound]
- Herbicidal effect rating, CASOB ([1]; 0.031 kg/ha): 2.0
- Herbicidal effect rating, CASOB ([1]; 0.063 kg/ha): 4.0
- Herbicidal effect rating, CASOB ([1]; 0.125 kg/ha): 4.0
- Herbicidal effect rating, CASOB ([1]; 0.250 kg/ha): 6.0
- ORYSAT ([2]; Rate 0.031 kg/ha): 1.0
- ORYSAT ([2]; Rate 0.063 kg/ha): 1.0
- ORYSAT ([2]; Rate 0.125 kg/ha): 3.0
- ORYSAT ([2]; Rate 0.250 kg/ha): 5.0
- Herbicidal effect rating, IPOSS ([3]; 0.031 kg/ha): 4.0
- Herbicidal effect rating, IPOSS ([3]; 0.063 kg/ha): 5.0
- Herbicidal effect rating, IPOSS ([3]; 0.125 kg/ha): 6.0
- Herbicidal effect rating, IPOSS ([3]; 0.250 kg/ha): 9.0
- Herbicidal effect rating, ZEAMX ([4]; 0.031 kg/ha): 3.0
- Herbicidal effect rating, ZEAMX ([4]; 0.063 kg/ha): 3.5
- Herbicidal effect rating, ZEAMX ([4]; 0.125 kg/ha): 4.0
- Herbicidal effect rating, ZEAMX ([4]; 0.250 kg/ha): 4.5
- Herbicidal effect rating, ECHCG ([5]; 0.031 kg/ha): 0.0
- Herbicidal effect rating, ECHCG ([5]; 0.063 kg/ha): 0.0
- Herbicidal effect rating, ECHCG ([5]; 0.125 kg/ha): 0.0
- Herbicidal effect rating, ECHCG ([5]; 0.250 kg/ha): 2.0
- Herbicidal effect rating, AMBEL ([6]; 0.031 kg/ha): 1.0
- Herbicidal effect rating, AMBEL ([6]; 0.063 kg/ha): 3.0
- Herbicidal effect rating, AMBEL ([6]; 0.125 kg/ha): 4.0
- Herbicidal effect rating, AMBEL ([6]; 0.250 kg/ha): 6.0
- Herbicidal effect rating, GALAP ([7]; 0.031 kg/ha): 2.0
- Herbicidal effect rating, GALAP ([7]; 0.063 kg/ha): 6.0
- Herbicidal effect rating, GALAP ([7]; 0.125 kg/ha): 7.0
- Herbicidal effect rating, GALAP ([7]; 0.250 kg/ha): 7.0
- Herbicidal effect rating, SETVI ([8]; 0.031 kg/ha): 0.0
- Herbicidal effect rating, SETVI ([8]; 0.063 kg/ha): 0.0
- Herbicidal effect rating, SETVI ([8]; 0.125 kg/ha): 0.0
- Herbicidal effect rating, SETVI ([8]; 0.250 kg/ha): 1.0
- Herbicidal effect rating, ABUTH ([9]; 0.031 kg/ha): 2.0
- Herbicidal effect rating, ABUTH ([9]; 0.063 kg/ha): 4.0
- Herbicidal effect rating, ABUTH ([9]; 0.125 kg/ha): 7.0
- Herbicidal effect rating, ABUTH ([9]; 0.250 kg/ha): 7.0
- Herbicidal effect rating, TRZAWO ([10]; 0.031 kg/ha): 3.5
- Herbicidal effect rating, TRZAWO ([10]; 0.063 kg/ha): 4.0
- Herbicidal effect rating, TRZAWO ([10]; 0.125 kg/ha): 4.5
- Herbicidal effect rating, TRZAWO ([10]; 0.250 kg/ha): 4.5

Structure (SMILES): COC(=O)Cn1c(=O)[nH]c(=O)n(-c2cc(Oc3ccc(C(F)(F)F)cc3Cl)ccc2[N+](=O)[O-])c1=O [Compound 8, Methyl 3-{5-[(2-chloro-α,α,α-trifluoro-p-tolyl)oxy]-2-nitrophenyl}tetrahydro-2,4,6-trioxo-s-triazine-1(2H)-acetate]
- CHEAL rating ([11]; Rate 0.125 kg/ha): 9.0
- CHEAL rating ([11]; Rate 0.250 kg/ha): 9.0
- CHEAL rating ([11]; Rate 0.500 kg/ha): 9.0
- ORYSAT herbicidal rating (rice tolerance) ([2]; Rate 0.063 kg/ha): 0.0
- ORYSAT herbicidal rating (rice tolerance) ([2]; Rate 0.125 kg/ha): 0.0
- ORYSAT herbicidal rating (rice tolerance) ([2]; Rate 0.250 kg/ha): 1.0
- ORYSAT herbicidal rating (rice tolerance) ([2]; Rate 0.500 kg/ha): 2.0
- IPOSS, herbicide rating (0-9) ([3]; Rate 0.125 kg/ha): 9.0
- IPOSS, herbicide rating (0-9) ([3]; Rate 0.250 kg/ha): 9.0
- IPOSS, herbicide rating (0-9) ([3]; Rate 0.500 kg/ha): 9.0
- AMBEL, herbicide rating (0-9) ([6]; Rate 0.125 kg/ha): 9.0
- AMBEL, herbicide rating (0-9) ([6]; Rate 0.250 kg/ha): 9.0
- AMBEL, herbicide rating (0-9) ([6]; Rate 0.500 kg/ha): 9.0
- ABUTH, herbicide rating (0-9) ([9]; Rate 0.125 kg/ha): 9.0
- ABUTH, herbicide rating (0-9) ([9]; Rate 0.250 kg/ha): 9.0
- ABUTH, herbicide rating (0-9) ([9]; Rate 0.500 kg/ha): 9.0

Structure (SMILES): COC(=O)Cn1c(=O)n(C)c(=O)n(-c2cc(Oc3cc(Cl)cc(Cl)c3)ccc2[N+](=O)[O-])c1=O [Compound 35, Methyl 3-[5-(3,5-dichlorophenoxy)-2-nitrophenyl]tetrahydro-5-methyl-2,4,6-trioxo-s-triazine-1(2H)-acetate]
- CASOB rating ([1]; Rate 0.125 kg/ha): 0.0
- CASOB rating ([1]; Rate 0.250 kg/ha): 0.0
- CASOB rating ([1]; Rate 0.500 kg/ha): 0.0
- CHEAL herbicidal rating ([11]; Rate 0.500 kg/ha): 0.0
- Herbicidal effect rating, ORYSAT [2]: 0.0
- ZEAMX rating ([4]; Rate 0.125 kg/ha): 1.0
- ZEAMX rating ([4]; Rate 0.250 kg/ha): 1.0
- ZEAMX rating ([4]; Rate 0.500 kg/ha): 1.0
- ECHCG rating ([5]; Rate 0.125 kg/ha): 0.0
- ECHCG rating ([5]; Rate 0.250 kg/ha): 0.0
- ECHCG rating ([5]; Rate 0.500 kg/ha): 0.0
- AMBEL rating ([6]; Rate 0.125 kg/ha): 0.0
- AMBEL rating ([6]; Rate 0.250 kg/ha): 0.0
- AMBEL rating ([6]; Rate 0.500 kg/ha): 0.0
- GALAP rating ([7]; Rate 0.125 kg/ha): 0.0
- GALAP rating ([7]; Rate 0.250 kg/ha): 0.0
- GALAP rating ([7]; Rate 0.500 kg/ha): 0.0
- SETVI rating ([8]; Rate 0.125 kg/ha): 0.0
- SETVI rating ([8]; Rate 0.250 kg/ha): 0.0
- SETVI rating ([8]; Rate 0.500 kg/ha): 0.0
- ABUTH rating ([9]; Rate 0.125 kg/ha): 0.0
- ABUTH rating ([9]; Rate 0.250 kg/ha): 0.0
- ABUTH rating ([9]; Rate 0.500 kg/ha): 0.0
- TRZAWO rating ([10]; Rate 0.125 kg/ha): 0.0
- TRZAWO rating ([10]; Rate 0.250 kg/ha): 0.0
- TRZAWO rating ([10]; Rate 0.500 kg/ha): 0.0

Structure (SMILES): COC(=O)Cn1c(=O)n(C)c(=O)n(-c2cc(Oc3ccc(SC)cc3Cl)ccc2[N+](=O)[O-])c1=O [Compound 34, Methyl 3-{5-[2-chloro-4-(methylthio)-phenoxy]-2-nitrophenyl}tetrahydro-5-methyl-2,4,6-trioxo-s-triazine-1(2H)-acetate]
- CHEAL herbicidal rating ([11]; Rate 0.125 kg/ha): 0.0
- CHEAL herbicidal rating ([11]; Rate 0.250 kg/ha): 0.0
- CHEAL herbicidal rating ([11]; Rate 0.500 kg/ha): 0.0
- Herbicidal effect rating, ORYSAT [2]: 0.0
- ECHCG rating ([5]; Rate 0.125 kg/ha): 0.0
- ECHCG rating ([5]; Rate 0.250 kg/ha): 0.0
- ECHCG rating ([5]; Rate 0.500 kg/ha): 0.0
- AMBEL rating ([6]; Rate 0.125 kg/ha): 2.0
- AMBEL rating ([6]; Rate 0.250 kg/ha): 2.0
- AMBEL rating ([6]; Rate 0.500 kg/ha): 2.0
- SETVI rating ([8]; Rate 0.125 kg/ha): 0.0
- SETVI rating ([8]; Rate 0.250 kg/ha): 0.0
- SETVI rating ([8]; Rate 0.500 kg/ha): 0.0
- TRZAWO rating ([10]; Rate 0.125 kg/ha): 2.0
- TRZAWO rating ([10]; Rate 0.250 kg/ha): 2.0
- TRZAWO rating ([10]; Rate 0.500 kg/ha): 2.0
